Results as given in patent publication US20230159510A1, “NOVEL PRMT5 INHIBITORS” (AMGEN INC., priority 2020, published 2023).
Read-outs that look alike come from different tables or passages of the source.

What was measured:
[1] = molecular target: PRMT5/MEP50 (Homo sapiens, UniProt O14744); assay: MTase-Glo methyl transferase assay, Method A (Histone H4 peptide, 1 µM MTA, 24 h pre-incubation); assay type: biochemical; parameters: made in house; conditions: read-out: PRMT5 MTase Glo Ki (nM, Meth. A)
Description: Method A: The PRMT5 inhibitory activity of test compounds was determined using the MTase-Glo™ assay (Promega), which monitors the product (S-adenosyl homocysteine or SAH) of methyltransferase reactions. The PRMT5 MTase-Glo assay was conducted in a 384-well white ProxiPlate (PerkinElmer) in a total volume of 12 µL. The PRMT5 enzymatic reaction (in 4 µL) contained 10 nM PRMT5/MEP50 (produced at Amgen), 5 µM S-adenosyl methionine (SAM, Promega), 1 µM Histone H4 (1-21)-Lys(Biotin) (Anaspec), 1 µM 5′-methylthioadenosine (MTA, Sigma) and two-fold serially diluted compounds in a reaction buffer of 50 mM Tris (pH 8.0), 50 mM NaCl, 0.01% Tween 20, 0.01% BSA, and 1 mM DTT. Test compounds were pre-incubated with PRMT5/MEP50, SAM, and MTA for 24 hours before addition of Histone H4 peptide to initiate the PRMT5 reaction. The reaction was allowed to proceed for 2 hours at room temperature and was then terminated by addition of 2 µL of 3X MTase-Glo™ Reagent (Promega) and 150 µM EPZ015666 (Sigma). After a 30-minute incubation at room temperature, 6 µL of MTase-Glo™ Detection Solution (Promega) was added and the plate was incubated at room temperature for an additional 30 minutes. The light signal corresponding to the amount of SAH produced by the PRMT5 reaction was subsequently measured using an Envision multimode reader (PerkinElmer). IC50 and KI values were obtained by analyzing dose-response curves using Genedata Screener (Genedata).

[2] = test system: HCT116 MTAP null cells; assay: HCT116 proliferation assay, MTAP null cells (CellTiter-Glo, 6 days); assay type: cell-based; conditions: 144 h, read-out: Protif_ HCT116-MTAP null IC50
How it was run: (§1)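 Compound titrations (top dose 1 or 10 µM, 1:3 dilution, 8 or 9 concentrations) and a DMSO control were applied to cells cultured overnight beforehand in RPMI 1640 with 10% FBS at 37° C, 5% CO2; viability was scored from luminescence.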

[3] = test system: HCT116 WT cells; assay: HCT116 proliferation assay, WT cells (CellTiter-Glo, 6 days); assay type: cell-based; conditions: Homo sapiens, HCT-116, 144 h, read-out: Prolif_HCT116-WT IC50
How it was run: as §1

PRMT5/MEP50, sequence (O14744 whole entry): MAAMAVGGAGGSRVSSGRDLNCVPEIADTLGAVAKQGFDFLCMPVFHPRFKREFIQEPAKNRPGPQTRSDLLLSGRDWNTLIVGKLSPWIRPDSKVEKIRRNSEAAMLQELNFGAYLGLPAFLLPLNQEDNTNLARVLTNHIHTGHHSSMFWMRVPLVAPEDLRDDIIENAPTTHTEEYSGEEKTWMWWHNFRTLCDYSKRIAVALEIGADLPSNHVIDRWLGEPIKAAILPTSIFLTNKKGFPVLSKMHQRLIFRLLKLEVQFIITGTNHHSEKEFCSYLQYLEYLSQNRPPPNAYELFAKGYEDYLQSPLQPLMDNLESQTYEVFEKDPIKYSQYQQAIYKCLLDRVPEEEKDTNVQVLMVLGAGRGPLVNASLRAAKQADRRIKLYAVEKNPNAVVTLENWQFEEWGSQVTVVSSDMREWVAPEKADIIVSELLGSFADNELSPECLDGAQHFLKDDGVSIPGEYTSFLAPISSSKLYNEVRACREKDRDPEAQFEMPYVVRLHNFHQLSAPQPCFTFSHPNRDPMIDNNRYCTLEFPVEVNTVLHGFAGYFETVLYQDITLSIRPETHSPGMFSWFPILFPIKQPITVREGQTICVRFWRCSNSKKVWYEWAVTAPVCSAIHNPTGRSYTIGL
PRMT5/MEP50, sequence (Q9BQA1 whole entry partner): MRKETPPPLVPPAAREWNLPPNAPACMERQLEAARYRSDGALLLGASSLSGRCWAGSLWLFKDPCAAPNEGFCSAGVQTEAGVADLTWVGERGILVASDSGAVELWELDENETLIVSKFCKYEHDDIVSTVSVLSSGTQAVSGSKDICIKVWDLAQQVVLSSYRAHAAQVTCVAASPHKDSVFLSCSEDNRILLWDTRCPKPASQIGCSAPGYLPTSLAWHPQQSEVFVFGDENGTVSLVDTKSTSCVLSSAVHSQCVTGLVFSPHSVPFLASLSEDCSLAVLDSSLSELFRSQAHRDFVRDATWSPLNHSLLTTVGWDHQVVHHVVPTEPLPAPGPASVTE

| SMILES | Ki [1] [nM] | IC50 ([2]; HCT116-MTAP null) [nM] | IC50 [3] [nM] | IC50 [2] [nM] |
| --- | --- | --- | --- | --- |
| Cc1cc2cc(C(=O)N(Cc3ccc(C(F)(F)F)cn3)Cc3ncccc3F)c(F)cc2nc1N [Example 310, 2-amino-7-fluoro-N-((3-fluoro-2-pyridinyl)methyl)-3-methyl-N-((5-(trifluoromethyl)-2-pyridinyl)methyl)-6-quinolinecarboxamide] | 0.29 | 67 | 1600 | – |
| C[C@H](c1ncccn1)N(Cc1ccc(C(F)(F)F)cn1)C(=O)c1ccc2nc(N)c(Br)cc2c1 [Example 434, 2-amino-3-bromo-N-((1R)-1-(2-pyrimidinyl)ethyl)-N-((5-(trifluoromethyl)-2-pyridinyl)methyl)-6-quinolinecarboxamide] | < 0.1 | 49 | 2420 | – |
| Cc1cc(CN(Cc2ccc(C(F)(F)F)cn2)C(=O)c2cc3cc(C)c(N)nc3cc2F)no1 [Example 316, 2-amino-7-fluoro-3-methyl-N-((5-methyl-1,2-oxazol-3-yl)methyl)-N-((5-(trifluoromethyl)-2-pyridinyl)methyl)-6-quinolinecarboxamide] | 1.03 | 534 | 10400 | – |
| Cc1cc2cc(C(=O)N(Cc3ccc(C(F)(F)F)cn3)[C@@H]3CCCN(C)C3=O)ccc2nc1N (single isomer, unassigned) [Example 460] | 1.82 | 155 | 7850 | – |
| Cc1cc2cc(C(=O)N(Cc3ccc(Br)nn3)[C@H](C)c3ncn(C)n3)ccc2nc1N (single isomer, unassigned) [Example 536] | 0.02 | 44 | 1460 | – |
| Cc1cc2cc(C(=O)N(Cc3ccc(Br)nn3)[C@@H]3CCC[C@H]3O)ccc2nc1N [Example 366, 2-amino-N-((6-bromo-3-pyridazinyl)methyl)-N-((1R,2R)-2-hydroxycyclopentyl)-3-methyl-6-quinolinecarboxamide] | 0.18 | 218 | 7010 | – |
| Cc1cc2cc(C(=O)N(Cc3ccc(C(F)(F)F)cn3)Cc3ncc(F)cn3)ccc2nc1N [Example 341, 2-amino-N-((5-fluoro-2-pyrimidinyl)methyl)-3-methyl-N-((5-(trifluoromethyl)-2-pyridinyl)methyl)-6-quinolinecarboxamide] | 0.52 | 437 | > 10000 | – |
| Cc1cc2cc(C(=O)N(Cc3ccc(OC4COC4)cn3)[C@H](C)c3ncccn3)ccc2nc1N [Example 427, 2-amino-3-methyl-N-((5-(3-oxetanyloxy)-2-pyridinyl)methyl)-N-((1R)-1-(2-pyrimidinyl)ethyl)-6-quinolinecarboxamide] | 0.1 | 151 | 4250 | – |
| C[C@H](c1ncccc1F)N(Cc1ccc(C#N)cn1)C(=O)c1ccc2nc(N)c(Cl)cc2c1 [Example 351, 2-amino-3-chloro-N-((5-cyano-2-pyridinyl)methyl)-N-((1R)-1-(3-fluoro-2-pyridinyl)ethyl)-6-quinolinecarboxamide] | 1.29 | 824 | > 10000 | – |
| Cc1cc2cc(C(=O)N(Cc3ccc(C(F)(F)F)cn3)CC(F)(F)F)ccc2nc1N [Example 442, 2-amino-3-methyl-N-(2,2,2-trifluoroethyl)-N-((5-(trifluoromethyl)-2-pyridinyl)methyl)-6-quinolinecarboxamide] | 6.87 | 969 | > 10000 | – |
| Cc1cc2cc(C(=O)N(Cc3ccc(C(F)(F)F)cn3)[C@H](C)c3ncccc3F)ccc2nc1N [Example 385, 2-amino-N-((1R)-1-(3-fluoro-2-pyridinyl)ethyl)-3-methyl-N-((5-(trifluoromethyl)-2-pyridinyl)methyl)-6-quinolinecarboxamide] | 0.08 | – | 1310 | 55 |
| Cc1cc2cc(C(=O)N(Cc3cc(C#N)ccn3)[C@H](C)c3ncccn3)ccc2nc1N [Example 513, 2-amino-N-((4-cyano-2-pyridinyl)methyl)-3-methyl-N-((1R)-1-(2-pyrimidinyl)ethyl)-6-quinolinecarboxamide] | 2.61 | 552 | > 10000 | – |
| C[C@H](c1ncccn1)N(Cc1ccc(C(F)(F)F)cn1)C(=O)c1ccc2nc(N)cc(Cl)c2c1 [Example 433, 2-amino-4-chloro-N-((1R)-1-(2-pyrimidinyl)ethyl)-N-((5-(trifluoromethyl)-2-pyridinyl)methyl)-6-quinolinecarboxamide] | 1.26 | 821 | 1170 | – |
| COc1ccc(CN(C(=O)c2cnc3nc(N)c(Br)cc3c2)[C@H](C)c2ncccn2)nn1 (single isomer, unassigned) [Example 478] | 0.31 | 594 | – | – |
| CC[C@H](c1ncccn1)N(Cc1ccc(C(F)(F)F)cn1)C(=O)c1ccc2nc(N)c(C)cc2c1 (single isomer, unassigned) [Example 489] | 0.06 | 27 | – | – |
| COc1ccc(CN(C(=O)c2ccc3nc(N)c(C)cc3c2)[C@H](C)c2ncccn2)nn1 (single isomer, unassigned) [Example 517, 2-amino-N-((6-methoxy-3-pyridazinyl)methyl)-3-methyl-N-((IR)-1-(2-pyrimidinyl)ethyl)-6-quinolinecarboxamide] | 0.07 | 73 | – | – |
| COc1cnc(CN(C(=O)c2ccc3nc(N)c(C)cc3c2)[C@H](C)c2ncccn2)cn1 (single isomer, unassigned) [Example 476] | 0.83 | 660 | – | – |
| Cc1cc2cc(C(=O)N(Cc3ccc(Br)c(C)n3)[C@H](C)c3ncccn3)ccc2nc1N (single isomer, unassigned) [Example 465] | < 0.1 | 24 | – | – |
| Cc1cc2cc(C(=O)N(Cc3ncccc3F)[C@@H]3CCc4nc(C(F)(F)F)ccc43)ccc2nc1N (single isomer, unassigned) [Example 463] | 1.23 | 683 | – | – |
| Cc1cc2cc(C(=O)N(Cc3ccc(OC(F)F)nn3)C(C)c3ncccn3)ccc2nc1N (centres unmarked) [Example 742, 2-amino-N-((6-(difluoromethoxy)pyridazin-3-yl)methyl)-3-methyl-N-(1-(pyrimidin-2-yl)ethyl)quinoline-6-carboxamide] | – | 40 | 1170 | – |
| C[C@H](c1ncccn1)N(Cc1ccc(OCC(F)(F)F)nn1)C(=O)c1cnc2nc(N)c(Br)cc2c1 [Example 793, (R)-7-amino-6-bromo-N-(1-(pyrimidin-2-yl)ethyl)-N-((6-(2,2,2-trifluoroethoxy)pyridazin-3-yl)methyl)-1,8-naphthyridine-3-carboxamide] | – | 783 | > 10000 | – |
| Cc1cc2cc(C(=O)N(Cc3ncccc3F)[C@H]3COc4cc(C(F)(F)F)ccc43)ccc2nc1N (single isomer, unassigned) [Example 524] | – | 135 | 2350 | – |
| CC[C@H](c1ncccn1)N(Cc1ccc(C#N)cn1)C(=O)c1ccc2nc(N)c(I)cc2c1 [Example 760, (R)-2-amino-N-((5-cyanopyridin-2-yl)methyl)-3-iodo-N-(1-(pyrimidin-2-yl)propyl)quinoline-6-carboxamide] | – | 100 | 2930 | – |
| CC[C@H](c1ncccn1)N(Cc1ccc(C(F)(F)F)cn1)C(=O)c1cnc2nc(N)c(I)cc2c1 (single isomer, unassigned) [Example 788] | – | 64 | 1590 | – |
| Cc1cc2cc(C(=O)N(Cc3ccc(C(F)(F)F)cn3)[C@H](C)c3ncon3)ccc2nc1N (single isomer, unassigned) [Example 818] | – | 24 | 372 | – |
| Cc1cc2cc(C(=O)N(Cc3ccc(C(F)(F)F)cn3)[C@@H]3CCOC[C@H]3O)ccc2nc1N (single isomer, unassigned) [Example 815] | – | 250 | 5150 | – |
| Cc1cc2cc(C(=O)N(Cc3ccc(C(F)(F)F)cn3)C(C)c3cccc(C#N)n3)ccc2nc1N (centres unmarked) [Example 806, 2-amino-N-(1-(6-cyanopyridin-2-yl)ethyl)-3-methyl-N-((5-(trifluoromethyl)pyridin-2-yl)methyl) quinoline-6-carboxamide] | – | 552 | 6800 | – |
| CCOC(C)CN(Cc1ccc(C(F)(F)F)cn1)C(=O)c1ccc2nc(N)c(C)cc2c1 (centres unmarked) [Example 584, 2-amino-N-(2-ethoxypropyl)-3-methyl-N-((5-(trifluoromethyl)pyridin-2-yl)methyl)quinoline-6-carboxamide] | – | 290 | > 1000 | – |
| CO[C@@H]1Cc2ccccc2[C@H]1N(Cc1ccc(C(F)(F)F)cn1)C(=O)c1ccc2nc(N)c(C)cc2c1 [Example 751, 2-amino-N-((1R,2R)-2-methoxy-2,3-dihydro-1H-inden-1-yl)-3-methyl-N-((5-(trifluoromethyl)-2-pyridinyl)methyl)-6-quinolinecarboxamide] | – | 144 | 1740 | – |
